Data as given in ChEMBL document CHEMBL4507273 (2021).

Tests used:
[1] = molecular target: Dual specificity mitogen-activated protein kinase kinase 5 (Homo sapiens) (UniProt Q13163); details: Compound concentration 1000.0 nM
[2] = molecular target: Hepatocyte growth factor receptor (Homo sapiens) (UniProt P08581); details: Compound concentration 1000.0 nM
[3] = molecular target: STE20-like serine/threonine-protein kinase (Homo sapiens) (UniProt Q9H2G2); details: Compound concentration 1000.0 nM
Chain of STE20-like serine/threonine-protein kinase (Homo sapiens) (Q9H2G2 whole entry, looked up): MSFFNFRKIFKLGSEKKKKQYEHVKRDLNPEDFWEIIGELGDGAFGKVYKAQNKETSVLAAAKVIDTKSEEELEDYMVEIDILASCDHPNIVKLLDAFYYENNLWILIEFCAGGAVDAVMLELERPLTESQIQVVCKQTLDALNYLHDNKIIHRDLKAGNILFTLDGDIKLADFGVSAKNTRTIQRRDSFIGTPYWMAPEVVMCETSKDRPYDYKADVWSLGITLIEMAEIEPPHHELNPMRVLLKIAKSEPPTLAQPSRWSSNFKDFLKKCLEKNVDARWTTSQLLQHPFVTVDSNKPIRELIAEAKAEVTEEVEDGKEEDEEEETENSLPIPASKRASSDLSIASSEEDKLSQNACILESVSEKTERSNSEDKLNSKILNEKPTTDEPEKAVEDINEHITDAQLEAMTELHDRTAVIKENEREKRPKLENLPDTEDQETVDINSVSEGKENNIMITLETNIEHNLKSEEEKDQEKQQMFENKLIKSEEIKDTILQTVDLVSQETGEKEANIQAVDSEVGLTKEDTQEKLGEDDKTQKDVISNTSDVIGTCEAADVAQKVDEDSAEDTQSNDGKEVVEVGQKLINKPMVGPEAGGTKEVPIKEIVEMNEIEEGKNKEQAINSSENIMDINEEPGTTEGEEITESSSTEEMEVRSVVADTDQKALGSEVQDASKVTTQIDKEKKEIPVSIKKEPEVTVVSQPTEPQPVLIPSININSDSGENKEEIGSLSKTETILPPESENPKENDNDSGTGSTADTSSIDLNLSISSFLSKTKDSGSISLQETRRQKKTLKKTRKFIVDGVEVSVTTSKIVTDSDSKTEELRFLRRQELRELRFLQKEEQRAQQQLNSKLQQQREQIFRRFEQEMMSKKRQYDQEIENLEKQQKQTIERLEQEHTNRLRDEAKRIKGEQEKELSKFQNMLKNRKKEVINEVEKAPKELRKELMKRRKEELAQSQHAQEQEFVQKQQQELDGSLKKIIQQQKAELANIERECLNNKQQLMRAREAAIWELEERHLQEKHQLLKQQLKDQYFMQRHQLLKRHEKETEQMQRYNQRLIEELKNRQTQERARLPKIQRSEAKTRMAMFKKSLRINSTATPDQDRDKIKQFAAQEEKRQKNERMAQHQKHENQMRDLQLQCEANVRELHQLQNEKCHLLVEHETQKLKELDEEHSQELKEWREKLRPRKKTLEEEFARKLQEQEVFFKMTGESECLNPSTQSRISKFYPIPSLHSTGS

[4] = molecular target: Interferon-induced, double-stranded RNA-activated protein kinase (Homo sapiens) (UniProt P19525); details: Compound concentration 1000.0 nM
[5] = molecular target: MAP/microtubule affinity-regulating kinase 3 (Homo sapiens) (UniProt P27448); details: Compound concentration 1000.0 nM
[6] = molecular target: Sodium-dependent dopamine transporter (Homo sapiens, UniProt Q01959); details: Compound concentration 10.0 uM
[7] = molecular target: Mitogen-activated protein kinase kinase kinase kinase 3 (Homo sapiens) (UniProt Q8IVH8); details: Compound concentration 1000.0 nM
[8] = molecular target: Ephrin type-B receptor 3 (Homo sapiens) (UniProt P54753); details: Compound concentration 1000.0 nM
[9] = system: Receptor-type tyrosine-protein kinase FLT3 (Homo sapiens), P36888 [D835V]; details: Compound concentration 1000.0 nM
[10] = molecular target: Serine/threonine-protein kinase Nek1 (Homo sapiens) (UniProt Q96PY6); details: Compound concentration 1000.0 nM
[11] = molecular target: Tyrosine-protein kinase JAK3 (Homo sapiens) (UniProt P52333); details: Compound concentration 1000.0 nM
Chain of Tyrosine-protein kinase JAK3 (Homo sapiens) (P52333 whole entry): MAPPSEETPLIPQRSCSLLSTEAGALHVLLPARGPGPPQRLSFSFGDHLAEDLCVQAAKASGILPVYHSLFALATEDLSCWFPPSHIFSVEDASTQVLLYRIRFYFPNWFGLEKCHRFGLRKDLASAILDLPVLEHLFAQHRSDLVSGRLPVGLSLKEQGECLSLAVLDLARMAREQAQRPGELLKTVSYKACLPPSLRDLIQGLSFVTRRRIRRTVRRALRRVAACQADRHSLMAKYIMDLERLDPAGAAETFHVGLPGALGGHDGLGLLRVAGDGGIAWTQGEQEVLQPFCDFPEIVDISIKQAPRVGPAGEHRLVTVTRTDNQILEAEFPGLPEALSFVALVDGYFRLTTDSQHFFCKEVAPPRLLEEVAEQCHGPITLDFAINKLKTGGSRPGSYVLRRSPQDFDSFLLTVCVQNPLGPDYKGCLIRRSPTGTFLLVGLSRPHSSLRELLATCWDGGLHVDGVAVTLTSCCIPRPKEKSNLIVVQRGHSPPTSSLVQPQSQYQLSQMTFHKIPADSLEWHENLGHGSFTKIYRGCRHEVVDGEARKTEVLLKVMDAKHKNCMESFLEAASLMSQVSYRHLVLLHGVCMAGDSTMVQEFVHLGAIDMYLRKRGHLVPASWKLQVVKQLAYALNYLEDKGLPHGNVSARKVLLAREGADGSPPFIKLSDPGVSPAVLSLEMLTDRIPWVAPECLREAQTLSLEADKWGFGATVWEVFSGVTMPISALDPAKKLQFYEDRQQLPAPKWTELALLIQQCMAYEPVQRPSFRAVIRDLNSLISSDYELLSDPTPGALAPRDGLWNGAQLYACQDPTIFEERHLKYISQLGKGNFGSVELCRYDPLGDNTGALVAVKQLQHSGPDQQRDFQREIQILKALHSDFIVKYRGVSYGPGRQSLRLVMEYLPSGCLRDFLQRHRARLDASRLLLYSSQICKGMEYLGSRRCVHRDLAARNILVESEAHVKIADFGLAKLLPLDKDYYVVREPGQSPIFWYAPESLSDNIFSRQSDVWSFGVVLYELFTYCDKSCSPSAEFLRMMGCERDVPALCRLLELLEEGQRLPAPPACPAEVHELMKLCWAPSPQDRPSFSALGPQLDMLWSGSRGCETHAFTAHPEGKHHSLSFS

[12] = molecular target: 5-hydroxytryptamine receptor 7 (Homo sapiens, UniProt P34969); assay: GPCRScan assay: inhibition of 5-HT7A; set-up: radioligand conc. used [nm] 5.0 – 6.0, parental cells Stable HEK
Chain of 5-hydroxytryptamine receptor 7 (P34969 whole entry): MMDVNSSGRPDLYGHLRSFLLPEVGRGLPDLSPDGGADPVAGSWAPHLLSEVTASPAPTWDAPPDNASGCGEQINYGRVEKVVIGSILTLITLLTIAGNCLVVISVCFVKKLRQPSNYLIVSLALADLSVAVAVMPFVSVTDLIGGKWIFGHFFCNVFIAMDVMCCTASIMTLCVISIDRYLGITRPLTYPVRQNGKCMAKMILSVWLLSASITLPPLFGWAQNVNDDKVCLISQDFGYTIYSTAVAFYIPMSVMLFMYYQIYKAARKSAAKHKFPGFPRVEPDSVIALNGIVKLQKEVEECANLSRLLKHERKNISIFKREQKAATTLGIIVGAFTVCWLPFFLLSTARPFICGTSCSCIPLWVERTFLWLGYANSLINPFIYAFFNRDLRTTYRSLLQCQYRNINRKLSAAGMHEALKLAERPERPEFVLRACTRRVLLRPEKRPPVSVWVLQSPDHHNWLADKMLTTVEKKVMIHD

[13] = molecular target: Sigma non-opioid intracellular receptor 1 (Homo sapiens) (UniProt Q99720); details: Compound concentration 10.0 uM
[14] = molecular target: Mast/stem cell growth factor receptor Kit (Homo sapiens) (UniProt P10721); details: Compound concentration 1000.0 nM
[15] = system: Phosphatidylinositol 4,5-bisphosphate 3-kinase catalytic subunit alpha isoform (Homo sapiens), P42336 [C420R]; details: Compound concentration 1000.0 nM
Chain of Phosphatidylinositol 4,5-bisphosphate 3-kinase catalytic subunit alpha isoform (Homo sapiens), P42336 [C420R] (P42336 whole entry C420R, canonical isoform): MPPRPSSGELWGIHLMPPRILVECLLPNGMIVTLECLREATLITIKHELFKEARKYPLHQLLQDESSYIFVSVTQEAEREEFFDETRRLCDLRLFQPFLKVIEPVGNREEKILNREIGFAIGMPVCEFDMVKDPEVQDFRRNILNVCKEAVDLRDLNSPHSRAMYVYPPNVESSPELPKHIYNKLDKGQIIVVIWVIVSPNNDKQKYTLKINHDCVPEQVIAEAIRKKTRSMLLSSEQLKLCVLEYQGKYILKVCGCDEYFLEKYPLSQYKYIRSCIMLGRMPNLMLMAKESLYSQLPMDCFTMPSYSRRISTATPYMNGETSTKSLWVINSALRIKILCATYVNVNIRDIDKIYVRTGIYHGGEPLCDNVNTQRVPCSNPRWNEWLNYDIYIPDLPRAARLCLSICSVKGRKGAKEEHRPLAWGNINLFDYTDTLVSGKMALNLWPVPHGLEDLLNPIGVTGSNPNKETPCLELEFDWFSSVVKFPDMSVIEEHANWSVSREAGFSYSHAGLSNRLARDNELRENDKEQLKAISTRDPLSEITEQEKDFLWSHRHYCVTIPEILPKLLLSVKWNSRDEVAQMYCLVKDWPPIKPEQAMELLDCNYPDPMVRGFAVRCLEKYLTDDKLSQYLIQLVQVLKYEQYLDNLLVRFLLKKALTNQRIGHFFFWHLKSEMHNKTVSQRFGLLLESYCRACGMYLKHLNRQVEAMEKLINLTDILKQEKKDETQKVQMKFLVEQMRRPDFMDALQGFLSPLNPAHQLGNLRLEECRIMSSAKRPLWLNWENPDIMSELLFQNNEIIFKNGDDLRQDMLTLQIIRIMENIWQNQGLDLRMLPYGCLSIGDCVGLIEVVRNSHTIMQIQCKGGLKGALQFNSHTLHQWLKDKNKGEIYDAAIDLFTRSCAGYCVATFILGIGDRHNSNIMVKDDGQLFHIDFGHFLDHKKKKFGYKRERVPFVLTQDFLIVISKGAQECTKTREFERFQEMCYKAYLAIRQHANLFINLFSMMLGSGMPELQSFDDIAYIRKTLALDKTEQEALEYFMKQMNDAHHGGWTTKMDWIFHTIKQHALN

[16] = molecular target: Dual specificity mitogen-activated protein kinase kinase 4 (Homo sapiens) (UniProt P45985); details: Compound concentration 1000.0 nM
[17] = molecular target: T1, Alpha-2B adrenergic receptor (Homo sapiens) (UniProt P18089); details: Compound concentration 10.0 uM
T1 sequence (whole entry): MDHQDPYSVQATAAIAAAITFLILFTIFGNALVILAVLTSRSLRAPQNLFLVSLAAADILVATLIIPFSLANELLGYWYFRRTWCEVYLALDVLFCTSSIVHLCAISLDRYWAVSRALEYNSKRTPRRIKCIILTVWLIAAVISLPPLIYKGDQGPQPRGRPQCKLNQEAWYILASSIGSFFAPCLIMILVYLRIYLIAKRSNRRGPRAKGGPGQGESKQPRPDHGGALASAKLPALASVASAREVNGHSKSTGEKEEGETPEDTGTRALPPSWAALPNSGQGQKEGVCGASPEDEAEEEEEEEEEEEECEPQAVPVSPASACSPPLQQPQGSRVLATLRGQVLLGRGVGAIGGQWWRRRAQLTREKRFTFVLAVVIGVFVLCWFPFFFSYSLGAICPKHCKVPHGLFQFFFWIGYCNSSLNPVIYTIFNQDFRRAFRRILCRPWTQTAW

[18] = molecular target: Interleukin-1 receptor-associated kinase 1 (Homo sapiens) (UniProt P51617); details: Compound concentration 1000.0 nM
[19] = molecular target: Serine/threonine-protein kinase Sgk1 (Homo sapiens) (UniProt O00141); details: Compound concentration 1000.0 nM
[20] = molecular target: T2, Alpha-2B adrenergic receptor (Homo sapiens, UniProt P18089); assay: GPCRScan assay: inhibition of Alpha2B; set-up: radioligand conc. used [nm] 1.5 – 2.0, parental cells HEKT
T2 sequence (P18089 whole entry): T1 sequence (whole entry)

[21] = molecular target: T3, Alpha-1A adrenergic receptor (Homo sapiens, UniProt P35348); assay: GPCRScan assay: inhibition of Alpha1A; set-up: radioligand conc. used [nm] 0.2 - 1.0, parental cells stable HEK
T3 sequence (P35348 whole entry): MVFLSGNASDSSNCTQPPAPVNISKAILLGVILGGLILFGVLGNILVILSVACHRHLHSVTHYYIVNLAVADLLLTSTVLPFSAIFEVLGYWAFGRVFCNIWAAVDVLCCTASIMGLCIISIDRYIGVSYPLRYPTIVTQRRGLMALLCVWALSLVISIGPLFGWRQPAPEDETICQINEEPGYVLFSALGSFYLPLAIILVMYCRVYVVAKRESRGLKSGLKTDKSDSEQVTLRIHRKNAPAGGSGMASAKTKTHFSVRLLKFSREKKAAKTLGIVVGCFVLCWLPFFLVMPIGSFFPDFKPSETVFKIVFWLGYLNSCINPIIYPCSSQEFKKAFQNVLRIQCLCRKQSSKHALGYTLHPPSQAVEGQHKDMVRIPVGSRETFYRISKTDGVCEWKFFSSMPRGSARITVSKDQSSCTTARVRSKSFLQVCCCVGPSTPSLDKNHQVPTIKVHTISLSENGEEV

[22] = molecular target: Serine/threonine-protein kinase/endoribonuclease IRE1 (Homo sapiens) (UniProt O75460); details: Compound concentration 1000.0 nM
[23] = molecular target: Ribosomal protein S6 kinase alpha-3 (Homo sapiens) (UniProt P51812); details: Compound concentration 1000.0 nM
[24] = molecular target: Cyclin-dependent kinase 4 (Homo sapiens) (UniProt P11802); details: Compound concentration 1000.0 nM
[25] = system: Epidermal growth factor receptor (Homo sapiens), P00533 [T790M]; details: Compound concentration 1000.0 nM
[26] = molecular target: Mitogen-activated protein kinase 9 (Homo sapiens) (UniProt P45984); details: Compound concentration 1000.0 nM
Chain of Mitogen-activated protein kinase 9 (Homo sapiens) (P45984 whole entry, looked up): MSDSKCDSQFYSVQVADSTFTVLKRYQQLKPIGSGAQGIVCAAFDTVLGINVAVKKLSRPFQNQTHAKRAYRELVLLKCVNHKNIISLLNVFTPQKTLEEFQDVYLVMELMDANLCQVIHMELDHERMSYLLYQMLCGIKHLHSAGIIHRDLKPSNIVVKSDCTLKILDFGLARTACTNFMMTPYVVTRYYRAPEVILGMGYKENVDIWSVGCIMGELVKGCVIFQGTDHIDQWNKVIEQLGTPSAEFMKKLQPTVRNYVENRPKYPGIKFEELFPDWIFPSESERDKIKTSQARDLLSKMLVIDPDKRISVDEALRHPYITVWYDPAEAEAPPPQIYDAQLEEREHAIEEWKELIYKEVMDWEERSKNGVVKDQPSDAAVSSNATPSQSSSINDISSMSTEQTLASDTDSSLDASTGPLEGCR

[27] = molecular target: Tyrosine-protein kinase receptor UFO (Homo sapiens) (UniProt P30530); details: Compound concentration 1000.0 nM
[28] = molecular target: Phosphatidylinositol 4,5-bisphosphate 3-kinase catalytic subunit gamma isoform (Homo sapiens) (UniProt P48736); details: Compound concentration 1000.0 nM
[29] = molecular target: Serine/threonine-protein kinase 32A (Homo sapiens) (UniProt Q8WU08); details: Compound concentration 1000.0 nM
[30] = molecular target: RAF proto-oncogene serine/threonine-protein kinase (Homo sapiens) (UniProt P04049); details: Compound concentration 1000.0 nM
Chain of RAF proto-oncogene serine/threonine-protein kinase (Homo sapiens) (P04049 whole entry): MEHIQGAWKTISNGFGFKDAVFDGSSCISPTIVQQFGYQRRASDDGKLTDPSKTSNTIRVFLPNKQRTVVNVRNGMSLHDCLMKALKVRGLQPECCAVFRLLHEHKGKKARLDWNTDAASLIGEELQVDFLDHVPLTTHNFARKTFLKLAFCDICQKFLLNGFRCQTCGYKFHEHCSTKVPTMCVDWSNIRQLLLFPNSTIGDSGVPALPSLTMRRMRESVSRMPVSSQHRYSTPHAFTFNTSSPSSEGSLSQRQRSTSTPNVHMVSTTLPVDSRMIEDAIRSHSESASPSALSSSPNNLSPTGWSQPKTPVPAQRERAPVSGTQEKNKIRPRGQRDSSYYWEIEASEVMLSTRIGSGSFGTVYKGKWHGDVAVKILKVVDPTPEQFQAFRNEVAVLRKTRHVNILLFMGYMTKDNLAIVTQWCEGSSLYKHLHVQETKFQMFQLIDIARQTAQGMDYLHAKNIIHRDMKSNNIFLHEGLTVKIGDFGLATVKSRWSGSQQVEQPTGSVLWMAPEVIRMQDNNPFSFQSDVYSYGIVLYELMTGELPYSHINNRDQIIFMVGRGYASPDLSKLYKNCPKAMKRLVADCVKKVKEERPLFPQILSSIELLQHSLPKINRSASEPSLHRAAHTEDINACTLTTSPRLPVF

[31] = molecular target: Megakaryocyte-associated tyrosine-protein kinase (Homo sapiens) (UniProt P42679); details: Compound concentration 1000.0 nM
[32] = molecular target: Aurora kinase A (Homo sapiens) (UniProt O14965); details: Compound concentration 1000.0 nM

CNCc1ccccc1-c1csc([C@H](C)Nc2nc(C)nc3cc(OC)c(OC)cc23)c1 [BAY-294]
0.847 µM: Ki ([20]; read-out: Ki)
0.437 µM: Ki ([21]; read-out: pKi (converted))
inactive: residual activity [1] 87% | residual activity [2] 100% | residual activity [3] 100% | residual activity [4] 100% | residual activity [5] 100% | residual activity [7] 100% | residual activity [8] 100% | residual activity [9] 88% | residual activity [10] 100% | residual activity [11] 99% | inhibition [13] 49% | residual activity [14] 100% | residual activity [15] 97% | residual activity [16] 100% | residual activity [18] 80% | residual activity [19] 91% | residual activity [22] 100% | residual activity [23] 100% | residual activity [24] 96% | residual activity [25] 76% | residual activity [26] 71% | residual activity [27] 100% | residual activity [28] 73% | residual activity [29] 91% | residual activity [30] 65% | residual activity [31] 51% | residual activity [32] 73%
0.7 µM: Ki ([12]; read-out: Ki)
active: inhibition [6] 70.3% | inhibition [17] 82.9%
0.813 µM: Ki ([20]; read-out: pKi (converted))
0.454 µM: Ki ([21]; read-out: Ki)

CNCc1ccccc1-c1csc([C@@H](C)Nc2nc(C)nc3cc(OC)c(OC)cc23)c1 [BAY-293]
0.428 µM: Ki ([21]; read-out: Ki)
active: inhibition [6] 77.2% | inhibition [17] 64.2%
1.7 µM: Ki ([12]; read-out: pKi (converted))
1.73 µM: Ki ([12]; read-out: Ki)
1.23 µM: Ki ([20]; read-out: Ki)
inactive: residual activity [1] 91% | residual activity [2] 95% | residual activity [3] 97% | residual activity [4] 90% | residual activity [5] 89% | residual activity [7] 99% | residual activity [8] 100% | residual activity [9] 70% | residual activity [10] 91% | residual activity [11] 94% | inhibition [13] 22.6% | residual activity [14] 100% | residual activity [15] 81% | residual activity [16] 86% | residual activity [18] 71% | residual activity [19] 81% | residual activity [22] 100% | residual activity [23] 80% | residual activity [24] 90% | residual activity [25] 68% | residual activity [26] 71% | residual activity [27] 93% | residual activity [28] 67% | residual activity [29] 76% | residual activity [30] 70% | residual activity [31] 57% | residual activity [32] 73%
